Results: ChEMBL document CHEMBL5321197, “Computational, in vitro and radiation-based in vivo studies on acetamide quinazolinone derivatives as new proposed purine nucleoside phosphorylase inhibitors for breast cancer” (Eur J Med Chem, 2023)

What was measured:
MCF7 = assay: Cytotoxicity against human MCF7 cells assessed as reduction in cell viability incubated for 24 hrs by MTT assay; type: functional, cell-based; conditions: MCF7, 24 h
[1] = molecular target: T1, Purine nucleoside phosphorylase (Homo sapiens, UniProt P00491); assay: Inhibition of PNP (unknown origin) by fluorescent based microplate reader analysis
T1 sequence (P00491 whole entry): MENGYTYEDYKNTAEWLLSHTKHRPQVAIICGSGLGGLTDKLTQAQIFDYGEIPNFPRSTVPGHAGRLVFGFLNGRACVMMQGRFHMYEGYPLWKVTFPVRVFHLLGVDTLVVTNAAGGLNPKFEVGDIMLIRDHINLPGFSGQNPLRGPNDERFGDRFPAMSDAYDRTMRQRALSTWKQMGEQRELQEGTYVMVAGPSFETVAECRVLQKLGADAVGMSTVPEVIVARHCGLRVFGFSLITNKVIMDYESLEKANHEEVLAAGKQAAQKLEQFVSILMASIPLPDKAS

T47D = assay: Cytotoxicity against human T47D cells assessed as reduction in cell viability incubated for 24 hrs by MTT assay; type: functional, cell-based
Hs-578T = assay: cells; type: functional, cell-based; conditions: Homo sapiens, 24 h
Description: Cytotoxicity against human Hs-578T cells assessed as reduction in cell viability incubated for 24 hrs by MTT assay

BT-549 = assay: Cytotoxicity against human BT-549 cells assessed as reduction in cell viability incubated for 24 hrs by MTT assay; type: functional, cell-based; conditions: BT-549, 24 h
MDA-MB-468 = assay: Cytotoxicity against human MDA-MB-468 cells assessed as reduction in cell viability incubated for 24 hrs by MTT assay; type: functional, cell-based; conditions: MDA-MB-468, 24 h
MDA-MB-231 = assay: Cytotoxicity against human MDA-MB-231 cells assessed as reduction in cell viability incubated for 24 hrs by MTT assay; type: functional, cell-based; conditions: MDA-MB-231, 24 h
MCF-10A = assay: Cytotoxicity against human MCF-10A cells assessed as reduction in cell viability incubated for 24 hrs by MTT assay; type: functional, cell-based

Structure (SMILES)	IC50 (MCF7) [µM]	IC50 [1] [µM]	also measured
COc1cc(NC(=O)Cn2c(=S)n(-c3ccccc3)c(=O)c3cc(C)ccc32)cc(OC)c1OC	3.73	0.255	–
COc1ccc(NC(=O)Cn2c(=S)n(-c3ccccc3)c(=O)c3cc(C)ccc32)cc1OC	5.16	0.338	–
COc1cc(NC(=O)Cn2c(=S)n(-c3ccccc3)c(=O)c3cc(C)ccc32)cc(OC)c1	9.87	–	–
CC(=O)c1ccccc1NC(=O)CSc1nc2ccc(C)cc2c(=O)n1-c1ccccc1	278	3.35	–
CC(=O)c1ccccc1NC(=O)Cn1c(=S)n(-c2ccccc2)c(=O)c2cc(C)ccc21	87.2	0.998	–
Cc1ccc2nc(SCC(=O)NCCc3ccccc3)n(-c3ccccc3)c(=O)c2c1	104	1.13	–
Nc1nc2c(Cc3cccnc3)c[nH]c2c(=O)[nH]1 [PELDESINE]	–	0.041	–
COc1cc(NC(=O)CSc2nc3ccc(C)cc3c(=O)n2-c2ccccc2)cc(OC)c1	8.5	1.32	–
CCOC(=O)N1CCC(NC(=O)Cn2c(=S)n(-c3ccccc3)c(=O)c3cc(C)ccc32)CC1	1.77	0.173	–
COc1cc2ncnc(Nc3ccc(F)c(Cl)c3)c2cc1OCCCN1CCOCC1 [GEFITINIB]	–	–	IC50 (T47D): 3.47 µM
Cc1ccc2c(c1)c(=O)n(-c1ccccc1)c(=S)n2CC(=O)NCCc1ccccc1	48.1	0.442	–
COc1ccc(NC(=O)CSc2nc3ccc(C)cc3c(=O)n2-c2ccccc2)cc1OC	383	5.63	–
CCOC(=O)N1CCC(NC(=O)CSc2nc3ccc(C)cc3c(=O)n2-c2ccccc2)CC1	31	1.88	–
COc1cc(NC(=O)CSc2nc3ccc(C)cc3c(=O)n2-c2ccccc2)cc(OC)c1OC	158	3.18	–
CCOC(=O)c1ccccc1NC(=O)CSc1nc2ccc(C)cc2c(=O)n1-c1ccccc1	926	2.12	–
CCOC(=O)c1ccccc1NC(=O)Cn1c(=S)n(-c2ccccc2)c(=O)c2cc(C)ccc21	0.99	0.159	IC50 (Hs-578T): 22.3 µM; IC50 (BT-549): 6.84 µM; IC50 (MDA-MB-468): 5.83 µM; IC50 (T47D): 4.54 µM; IC50 (MDA-MB-231): 6.01 µM; IC50 (MCF-10A): 67.3 µM
